Assay results from ChEMBL document CHEMBL5252594.
Activity calls are given as the source filed them.

Columns and labels:
Format in all cases: functional, organism-based
[1] = tested on: Aedes aegypti; assay: Larvicidal activity against Aedes aegypti Rockefeller strain L3 Larvae assessed as mortality at 150 ug/ml measured after 72 hrs; details: dose 150.0 µg/ml
[2] = tested on: Aedes aegypti; assay: Larvicidal activity against Aedes aegypti Rockefeller strain L3 Larvae assessed as mortality at 90 ug/ml measured after 24 hrs; details: dose 90.0 µg/ml
[3] = tested on: Aedes aegypti; assay: Larvicidal activity against Aedes aegypti Rockefeller strain L3 Larvae assessed as mortality at 90 ug/ml measured after 48 hrs; details: dose 90.0 µg/ml
[4] = tested on: Aedes aegypti; assay: Larvicidal activity against Aedes aegypti Rockefeller strain L3 Larvae assessed as mortality at 150 ug/ml measured after 24 hrs; details: dose 150.0 µg/ml
[5] = tested on: Aedes aegypti; assay: Larvicidal activity against Aedes aegypti Rockefeller strain L3 Larvae assessed as mortality at 90 ug/ml measured after 72 hrs; details: dose 90.0 µg/ml
[6] = tested on: Aedes aegypti; assay: Larvicidal activity against Aedes aegypti Rockefeller strain L3 Larvae assessed as mortality at 150 ug/ml measured after 48 hrs; details: dose 150.0 µg/ml

Measured: Activity

O=C(/C=C/c1ccc(O)c(O)c1)O[C@@H]1C[C@](O)(C(=O)O)C[C@@H](OC(=O)/C=C/c2ccc(O)c(O)c2)[C@H]1O
inactive: all assays above
